From US20220047529A1, “METHODS OF INHIBITION” (University of Canberra, priority 2018, published 2022) come the findings set out here.

The subject of this assay is form-deprivation myopia. In words: Form-deprivation myopia (FDM) development in chicks with a translucent diffuser; axial length by A-scan ultrasonography. The note with it: four days; for axial length: diffuser-treated eye.
The mark [1] stands for this setting: daily intravitreal injection of 1.5 mM solution.
[2] abbreviates: daily intravitreal injection of 15 mM solution.
[3] abbreviates: daily intravitreal injection of 1.5 mM solution (10 μL), mean±SEM.
Setting [4] is: daily intravitreal injection of 15 mM solution (10 μL), mean±SEM.
Where [5] appears, read: twice daily topical administration of 1.5 mM solution, mean±SEM.
Where [6] appears, read: twice daily topical eye drops of 15 mM solution, mean±SEM.
Where [7] appears, read: twice daily topical eye drops of 15 mM solution.

Description: 30 white male cockerel chickens were randomly assigned to one of six treatment groups as defined below (n=5 per group) and were treated for a four day period. • Chicks fitted with a translucent diffuser over their left eye to induce form-deprivation myopia (FDM); • Chicks fitted with a translucent diffuser over their left eye and daily intravitreal injection of a 1.5 mM (0.028%) dopamine solution prepared according to Example 1; • Chicks fitted with a translucent diffuser over their left eye and twice daily topical administration of a 1.5 mM (0.028%) dopamine solution prepared according to Example 1; • Chicks fitted with a translucent diffuser over their left eye and daily intravitreal injection of a 15 mM (0.28%) dopamine solution prepared according to Example 1; • Chicks fitted with a translucent diffuser over their left eye and twice daily topical administration of a 15 mM (0.28%) dopamine solution prepared according to Example 1; • Age-matched untreated control group.
For the drug treatments, the compositions were administered under light isoflurane anesthesia using intravitreal injection or topical administration.
Intravitreal injection was performed as follows: Using a 30 gauge needle attached to a Hamilton syringe, 10 μL (0.01 mL) of the test composition was injected into the vitreous chamber of the eye once daily.
Topical administration was performed as follows: Two drops of 40 μL (two drops of 0.04 mL, or 0.08 mL total) of the test composition was applied to the corneal surface of the eye using an eye drop dispenser. Drops were applied to the chicks twice daily.
To determine changes in the rate of eye growth and the development of myopia, changes in axial length was assessed. […] Axial length, anterior chamber depth and vitreal chamber depth were measured using A-scan ultrasonography (Biometer AL-100; Tomey Corporation, Nagoya, Japan). Statistical analysis of changes in axial length, anterior chamber depth and vitreal chamber depth between groups involved a one-way ANOVA test followed by a Student's T-test with Bonferroni correction. All data are presented as the mean±the standard deviation of the mean (SEM).

Regarding `CN1CCN(CC(=O)N2c3ccccc3C(=O)Nc3cccnc32)CC1` [pirenzepine], the “effect on excessive axial elongation associated with form-deprivation myopia (in words)” value (from here on “effect”) (daily intravitreal injection of 17 mM pirenzepine alone) is reported as “significantly inhibited”.

Take `NCCc1ccc(O)c(O)c1` [dopamine, 2-(3,4-dihydroxyphenyl)ethylamine]: the “protection relative to FDM-only” value is 78% under setting [1], 78% under setting [2] and 72% under setting [7]. In addition, the axial length worked out at 8.82±0.02 mm under setting [3], 8.82±0.11 mm under setting [4], 8.97±0.08 mm under setting [5] and 8.84±0.07 mm under setting [6].

For the compound `[2H]C([2H])(N)C([2H])([2H])c1ccc(O)c(O)c1` [dopamine-1,1,2,2-d4, 2-(3,4-dihydroxyphenyl)ethyl-1,1,2,2,d4-amine], the “effect” value (daily intravitreal injection of 0.15 mM dopamine-1,1,2,2-d4 alone) is “significantly inhibited”. The “protection relative to FDM-only” value is, setting by setting: under setting [1], 92%; under setting [2], 103%; under setting [7], 71%. Also, the axial length is on record as 8.77±0.11 mm under setting [3], 8.72±0.06 mm under setting [4], 8.88±0.10 mm under setting [5] and 8.85±0.14 mm under setting [6].

Take `CN1[C@@H]2CC[C@H]1C[C@@H](OC(=O)C(CO)c1ccccc1)C2` (stereo partly drawn) [atropine]: the “effect” value (daily intravitreal injection of 0.25 mM atropine alone) was “significantly inhibited”. Further, under “twice daily topical administration of 50 mM atropine solution alone”, the axial length turned out to be 8.79±0.09 mm.
